The values that follow come from US8008251B2, “Macrocyclic inhibitors of hepatitis C virus” (Tibotec Pharmaceuticals Ltd., priority 2005, dated 2011).

Read-outs that look alike come from different tables or passages of the source.

The test system of data set [1] is HCV replicons (NS3-NS5B regions of HCV type 1b) in Huh-7 luc/neo cells. Kind of data set: HCV replicon assay (Huh-Luc, luciferase readout). Type of data set: cell-based. The note with it: Hepatitis C virus, Huh-7, 72 h, three days incubation, luciferase activity. As for the experimental part:
The in vitro antiviral activity against HCV of the compounds of formula (I) was tested in a cellular HCV replicon system based on Lohmann et al. (1999) Science 285:110-113, with the further modifications described by Krieger et al. (2001), Journal of Virology 75: 4614-4624, which is further exemplified in the examples section. This model, while not a complete infection model for HCV, is widely accepted as the most robust and efficient model of autonomous HCV RNA replication currently available. […] It will be appreciated that it is important to distinguish between compounds that specifically interfere with HCV functions from those that exert cytotoxic or cytostatic effects in the HCV replicon model, and as a consequence cause a decrease in HCV RNA or linked reporter enzyme concentration. Assays are known in the field for the evaluation of cellular cytotoxicity based for example on the activity of mitochondrial enzymes using fluorogenic redox dyes such as resazurin. Furthermore, cellular counter screens exist for the evaluation of non-selective inhibition of linked reporter gene activity, such as firefly luciferase. Appropriate cell types can be equipped by stable transfection with a luciferase reporter gene whose expression is dependent on a constitutively active gene promoter, and such cells can be used as a counter-screen to eliminate non-selective inhibitors.
The compounds of formula (I) were examined for activity in the inhibition of HCV RNA replication in a cellular assay. […] The cellular assay was based on a bicistronic expression construct, as described by Lohmann et al. (1999) Science vol. 285 pp. 110-113 with modifications described by Krieger et al. (2001) Journal of Virology 75: 4614-4624, in a multi-target screening strategy. In essence, the method was as follows.
The assay utilized the stably transfected cell line Huh-7 luc/neo (hereafter referred to as Huh-Luc). This cell line harbors an RNA encoding a bicistronic expression construct comprising the wild type NS3-NS5B regions of HCV type 1b translated from an Internal Ribosome Entry Site (IRES) from encephalomyocarditis virus (EMCV), preceded by a reporter portion (FfL-luciferase), and a selectable marker portion (neo^R, neomycine phosphotransferase). […]
The replicon cells were plated in 384 well plates in the presence of the test and control compounds which were added in various concentrations. Following an incubation of three days, HCV replication was measured by assaying luciferase activity (using standard luciferase assay substrates and reagents and a Perkin Elmer ViewLux™ ultraHTS microplate imager). […] The inhibitory activity of the compound on luciferase activity was monitored on the Huh-Luc cells, enabling a dose-response curve for each test compound.
In general terms: In antiviral work, replicon cells carry a viral genome segment that copies itself.

The next data set is described as follows: in vitro. To be noted: human, Caco-2.
Data set [2] has as its target T1, full-length hepatitis C NS3 protease enzyme with NS4A cofactor (HCV NS3/4A protease) (Hepatitis C virus genotype 1a, UniProt P27958).
T1 construct: full-length hepatitis C NS3 protease enzyme
In words: Enzymatic inhibition assay of HCV NS3/4A protease. Type of data set: biochemical. Here is the method:
[Landro, Biochemistry, 1997, 36(31): 9340-9348]. […] The solutions were stored at −20° C. between measurements.
[Liu, 1999 Analytical Biochemistry 267 331-335].

For data set [3] the following is noted: reference compounds for permeability assay; cited from earlier work.
The conditions of data set [4]: rcm bond, Hoveyda-Grubbs 1st generation catalyst, 1,2-dichloroethane, 83.0 °C.
Data set [5] can be described thus: Oral pharmacokinetics in dog with and without ritonavir boosting. It is filed as in vivo, male Beagle dogs. To be noted: single oral 10 mg/kg, boosted with ritonavir (Norvir 100 mg capsule) vs non-boosted. As for the experimental part:
Oral pharmacokinetics of Compound nr. 9 in male Beagle dogs after a single dose at 10 mg/kg, using a formulation in 50% PEG400/water and the influence of “boosting” with 10 mg/kg ritonavir were investigated.
Six male Beagle dogs (body weight 8-10 kg) were randomly divided into 2 groups of 3 animals (boosted and non-boosted). No untreated or vehicle-treated control animals were included. […] Drinking water remained available throughout the experiment.
Dogs from the non-boosted group received a single oral 10 mg/kg dose of Compound nr. 9, formulated as a 5 mg/ml 50% PEG400/water. Dogs from the boosted group received a single soft capsule of Norvir® (ritonavir, 100 mg/capsule), about 30 minutes before single oral dosing with 10 mg/kg of Compound nr. 9. The drug formulations were administered by oral gavage, using a gastric tube.
A 3 ml blood sample was collected at 0.5 h 1 h, 2 h, 4 h, 6 h, 8 h and 24 hours after dosing of Compound nr. 9. Plasma concentrations were determined using HPLC-MS. Results are shown in the table 5 below, expressed as fold change in pharmacokinetic parameter of the boosted group as compared to the non-boosted group.

Data set [6] is described as follows: In vitro metabolic blocking by ritonavir in human liver microsomes. Type of data set: in vitro ADME. To be noted: human liver microsomes 1 mg/ml. Here is the method: Different HCV NS3/4a protease inhibitors were tested in a metabolic blocking experiment using 3 μM test compound together with 10 μM ritonavir acting as booster. Test compounds and ritonavir were added to human liver microsomes (protein concentration 1 mg/ml) suspended in potassium phosphate buffer (pH=7.4), to get final reaction mixture concentrations of 3 μM test compound and 10 μM ritonavir. In the non-boosted parallel reactions, ritonavir was not added. Boiled human liver microsomes were used for blank experiments. After addition (in a 1:3 ratio) of a cofactor mixture consisting of β-nicotinamide adenine dinucleotide phosphate (β-NADP, 0.5 mg/ml, 653.2 μM), D-Glucose-6-phosphate (2 mg/ml, 7.1 mM), Glucose-6-phosphate dehydrogenase (1.5 U/ml) in 2% NaHCO3, the reaction mixture was incubated at 37° C. for 30 or 120 minutes after which the reaction was stopped by increasing the temperature to 95° C. Test compound concentrations were determined using HPLC-MS.
Values are percentages of test compound detected after the indicated incubation times as compared to the initial test compound concentration. Each value is the mean of the results of two independent experiments.

T1 sequence (P27958 1027-1657, other chains not shown): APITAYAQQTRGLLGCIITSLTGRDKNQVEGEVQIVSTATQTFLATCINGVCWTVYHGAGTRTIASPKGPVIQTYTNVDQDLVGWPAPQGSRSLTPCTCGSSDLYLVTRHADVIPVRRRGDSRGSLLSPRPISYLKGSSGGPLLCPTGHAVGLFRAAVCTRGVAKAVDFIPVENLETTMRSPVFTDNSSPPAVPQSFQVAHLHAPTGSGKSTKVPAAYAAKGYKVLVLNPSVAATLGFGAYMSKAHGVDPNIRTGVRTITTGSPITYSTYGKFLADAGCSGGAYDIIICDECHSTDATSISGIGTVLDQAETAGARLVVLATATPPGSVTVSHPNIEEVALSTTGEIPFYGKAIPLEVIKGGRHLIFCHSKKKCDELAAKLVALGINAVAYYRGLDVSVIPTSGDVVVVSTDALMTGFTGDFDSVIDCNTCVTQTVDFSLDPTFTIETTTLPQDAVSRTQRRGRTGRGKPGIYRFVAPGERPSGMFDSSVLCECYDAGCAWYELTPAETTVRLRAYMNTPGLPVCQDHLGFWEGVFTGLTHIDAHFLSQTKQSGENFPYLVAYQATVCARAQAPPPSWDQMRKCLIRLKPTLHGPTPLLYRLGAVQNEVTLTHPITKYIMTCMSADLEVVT

In data set [1], `COc1ccc2c(O[C@@H]3C[C@H]4C(=O)N[C@]5(C(=O)NS(=O)(=O)C6CC6)C[C@H]5/C=C\CCCCNC(=O)N4C3)cc(-c3nc(C(C)C)cs3)nc2c1` [Compound 26, Cyclopropanesulphonic acid {17-[2-(4-isopropylthiazol-2-yl)-7-methoxyquinolin-4-yloxy]-2,14-dioxo-3,13,15-triaza-tricyclo[13.3.0.0^4,6]-octadec-7-ene-4-carbonyl}-amide] returned an EC50 of 0.0064 µM. In the data set “in vitro”, this molecule yielded an apparent permeability (Papp) at 120 min, 10 μM of 3.6 ×10⁻⁶ cm/s. In data set [2], this molecule yielded a Ki of 0.4 nM.

As for `N[C@@H](Cc1ccccc1)C(=O)O` [L-Phenylalanine], the “% absorption in man” value in data set [3] is given as 100%.

Molecule `COc1ccc2c(O[C@@H]3C[C@H]4C(=O)N[C@]5(C(=O)NS(=O)(=O)C6(C)CC6)C[C@H]5/C=C\CCCCNC(=O)N4C3)cc(-c3nc(C(C)C)cs3)nc2c1` [Compound 28, 1-Methyl-cyclopropanesulphonic acid [17-[2-(4-isopropyl-thiazol-2-yl)-7-methoxyquinolin-4-yloxy]-2,14-dioxo-3,13,15-triaza-tricyclo-[13.3.0.0^4,6]octadec-7-ene-4-carbonyl]-amide] registered an EC50 in data set [1] of 0.0023 µM. In “in vitro”, this molecule gave a Papp at 120 min, 10 μM of 8.6 ×10⁻⁶ cm/s. In data set [2], the affinity corresponds to a Ki of 0.3 nM.

In the case of `CCOC(=O)C12CC1C=CCCCCCNC(=O)N1CC(Oc3cc(-c4nc(C(C)C)cs4)nc4cc(OC)ccc34)CC1C(=O)N2` (stereo not shown), in data set [4] (from C=CCCCCCNC(=O)N1CC(Oc2cc(-c3nc(C(C)C)cs3)nc3cc(OC)ccc23)CC1C(=O)NC1(C(=O)OCC)CC1C=C, 2.2 mM, 16.0 h), the ring closure, yield of all isomers worked out at 57%.

The molecule `CCOC(=O)C12CC1C=CCCCCN(C)C(=O)N1CC(OC(=O)c3ccc([N+](=O)[O-])cc3)CC1C(=O)N2` (stereo not shown) gave a ring closure, yield of all isomers in data set [4] (from C=CCCCCN(C)C(=O)N1CC(OC(=O)c2ccc([N+](=O)[O-])cc2)CC1C(=O)NC1(C(=O)OCC)CC1C=C, 1.93 mM) of 74%.

`COc1ccc2c(O[C@@H]3C[C@H]4C(=O)N[C@]5(C(=O)NS(=O)(=O)C6(C)CC6)C[C@H]5/C=C\CCCCCNC(=O)N4C3)cc(-c3nc(C(C)C)cs3)nc2c1` [Compound 33, 1-Methyl-cyclopropanesulphonic acid [18-[2-(4-isopropyl-thiazol-2-yl)-7-methoxyquinolin-4-yloxy]-2,15-dioxo-3,14,16-triaza-tricyclo-[14.3.0.0^4,6]nonadec-7-ene-4-carbonyl]-amide] gave an EC50 in data set [1] of 0.0036 µM. Further, in “in vitro”, the Papp at 120 min, 10 μM was found to be 31 ×10⁻⁶ cm/s. The same molecule had a Ki in data set [2] of 0.3 nM.

As to `COc1ccc2c(O[C@@H]3C[C@H]4C(=O)N[C@]5(C(=O)NS(=O)(=O)C6CC6)C[C@H]5/C=C\CCCCCNC(=O)N4C3)cc(-c3nc(C(C)C)cs3)nc2c1` [Compound 9, N-[18-[2-(4-isopropylthiazol-2-yl)-7-methoxyquinolin-4-yl-oxy]-2,15-dioxo-3,14,16-triazatricyclo[14.3.0.0^4,6]nonadec-7-ene-4-carbonyl]-(cyclopropyl)sulfonamide], in data set [5], the “Fold increase in AUC when boosted with ritonavir” value is given as 55 fold and the “Fold increase in Cmax when boosted with ritonavir” value came to 31 fold. Also, it took 0.007 µM to reach a half-maximal effect in data set [1] (EC50). This molecule also gave a Papp at 120 min, 10 μM in “in vitro” of 11 ×10⁻⁶ cm/s. For the same molecule, in data set [6] (3 μM test compound + 10 μM ritonavir, 30 min), the “% Detected Compound, 30′, ritonavir” value was determined as 88%. Further, the “% Detected Compound, 120′, ritonavir” value in data set [6] (3 μM test compound + 10 μM ritonavir, 120 min) is 100%. In addition, the “% Detected Compound, 30′, No Booster” value in data set [6] (3 μM test compound, 30 min, no ritonavir) is listed as 44%. The “% Detected Compound, 120′, No Booster” value in data set [6] (3 μM test compound, 120 min, no ritonavir) came to 0%. The Ki in data set [2] amounted to 0.12 nM.

Molecule `CCOC(=O)C12CC1C=CCCCCN(C)C(=O)N1CC(Oc3cc(-c4nc(C(C)C)cs4)nc4cc(OC)ccc34)CC1C(=O)N2` (stereo not shown) displayed a ring closure, yield of all isomers in data set [4] (from C=CCCCCN(C)C(=O)N1CC(Oc2cc(-c3nc(C(C)C)cs3)nc3cc(OC)ccc23)CC1C(=O)NC1(C(=O)OCC)CC1C=C, 1.45 mM) of 74%.

Broadly, the EC50 is the concentration needed to bring the measured effect to its halfway point. A low value points to a more potent agent. In general, Papp refers to the rate of passage across a membrane or cell layer, normalised by area and donor concentration. Read a high Papp as ready permeation. The term Ki denotes a measure of affinity in units of concentration, obtained from inhibition or displacement. Read a high Ki as lower affinity.
